Reference: patent US10544130B2, “Metallo-beta-lactamase inhibitors” (priority 2015, dated 2020)

Tested on: Pseudomonas aeruginosa PAO1 MB9798 (efflux+, IMP-1)
Conditions: ratio MITC95 PA 9798/MITC95 PA 9799; imipenem at 2 μg/mL
In short: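 Isogenic PAO1 pair (efflux+ MB9798, efflux− MB9799, both IMP-1) tested by microbroth MIC with fixed imipenem and/or ceftazidime, usually at CLSI breakpoint, plus fixed class A/C inhibitor against AmpC. MBL inhibitor titrated; concentration restoring susceptibility recorded and fold difference between strains taken as efflux extent.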

Row | SMILES | Efflux ratio
1 | NS(=O)(=O)c1c(S(=O)(=O)N[C@@H]2CCNC2)ccc(-c2cccc3nc(O)[nH]c23)c1-c1nnn[nH]1 [Example 130, (R)-4-(2-hydroxy-1H-benzo[d]imidazol-7-yl)-N1-(pyrrolidin-3-yl)-3-(1H-tetrazol-5-yl)benzene-1,2-disulfonamide] | 0.50
2 | NS(=O)(=O)c1c(S(=O)(=O)N[C@@H]2CCNC2)ccc(-c2cccc3c2OC(F)(F)O3)c1-c1nnn[nH]1 [Example 131, (R)-4-(2,2-difluorobenzo[d][1,3]dioxol-4-yl)-N1-(pyrrolidin-3-yl)-3-(1H-tetrazol-5-yl)benzene-1,2-disulfonamide] | 16.00
3 | N#Cc1cccc(-c2ccc(S(=O)(=O)N[C@@H]3CCNC3)c(S(N)(=O)=O)c2-c2nnn[nH]2)c1N [Example 132, (R)-2′-amino-3′-cyano-N4-(pyrrolidin-3-yl)-2-(1H-tetrazol-5-yl)-[1,1′-biphenyl]-3,4-disulfonamide] | 4.00
4 | NS(=O)(=O)c1c(S(=O)(=O)N[C@@H]2CCNC2)ccc(-c2ccc3nonc3c2)c1-c1nnn[nH]1 [Example 133, (R)-4-(benzo[c][1,2,5]oxadiazol-5-yl)-N1-(pyrrolidin-3-yl)-3-(1H-tetrazol-5-yl)benzene-1,2-disulfonamide] | 8.00
5 | NS(=O)(=O)c1ccc(-c2ccc(S(=O)(=O)N[C@@H]3CCNC3)c(S(N)(=O)=O)c2-c2nnn[nH]2)cc1 [Example 135, (R)-N4-(pyrrolidin-3-yl)-2-(1H-tetrazol-5-yl)-[1,1′-biphenyl]-3,4,4′-trisulfonamide] | 1.00
6 | CS(=O)(=O)Nc1ccc(-c2ccc(S(=O)(=O)N[C@@H]3CCNC3)c(S(N)(=O)=O)c2-c2nnn[nH]2)cc1 [Example 136, (R)-4′-(methylsulfonamido)-N4-(pyrrolidin-3-yl)-2-(1H-tetrazol-5-yl)-[1,1′-biphenyl]-3,4-disulfonamide] | 2.00
7 | NC(=O)c1ccc(-c2ccc(S(=O)(=O)N[C@@H]3CCNC3)c(S(N)(=O)=O)c2-c2nnn[nH]2)cc1 [Example 137, (R)-4′-(N-(pyrrolidin-3-yl)sulfamoyl)-3′-sulfamoyl-2′-(1H-tetrazol-5-yl)-[1,1′-biphenyl]-4-carboxamide] | 1.00
8 | NS(=O)(=O)c1c(S(=O)(=O)N[C@@H]2CCNC2)ccc(-c2ccc3c(c2)C(=O)NC3)c1-c1nnn[nH]1 [Example 138, (R)-4-(3-oxoisoindolin-5-yl)-N1-(pyrrolidin-3-yl)-3-(1H-tetrazol-5-yl)benzene-1,2-disulfonamide] | 1.00
9 | NS(=O)(=O)c1c(S(=O)(=O)N[C@@H]2CCNC2)ccc(-c2cccc3cn[nH]c23)c1-c1nnn[nH]1 [Example 139, (R)-4-(1H-indazol-7-yl)-N1-(pyrrolidin-3-yl)-3-(1H-tetrazol-5-yl)benzene-1,2-disulfonamide] | 1.00
10 | NS(=O)(=O)c1c(S(=O)(=O)N[C@@H]2CCNC2)ccc(-c2cnc3ccccn23)c1-c1nnn[nH]1 [Example 140, (R)-4-(imidazo[1,2-a]pyridin-3-yl)-N1-(pyrrolidin-3-yl)-3-(1H-tetrazol-5-yl)benzene-1,2-disulfonamide] | 2.00
11 | C[C@H]1NC(=O)O[C@H]1c1ccc(-c2ccc(S(=O)(=O)N[C@@H]3CCNC3)c(S(N)(=O)=O)c2-c2nnn[nH]2)cc1 [Example 141, 4'-((4R,5S)-4-methyl-2-oxooxazolidin-5-yl)-N4-((R)-pyrrolidin-3-yl)-2-(1H-tetrazol-5-yl)-[1,1'-biphenyl]-3,4-disulfonamide] | 1.00
12 | Nc1nc2c(-c3ccc(S(N)(=O)=O)c(S(N)(=O)=O)c3-c3nn[nH]n3)cccc2s1 [Example 143, 4-(2-aminobenzo[d]thiazol-4-yl)-3-(2H-tetrazol-5-yl)benzene-1,2-disulfonamide] | 0.50
13 | Nc1nc2c(-c3ccc(S(=O)(=O)NCCO)c(S(N)(=O)=O)c3-c3nn[nH]n3)cccc2s1 [Example 144, 4-(2-aminobenzo[d]thiazol-4-yl)-N1-(2-hydroxyethyl)-3-(2H-tetrazol-5-yl)benzene-1,2-disulfonamide] | 1.00
14 | NCCNS(=O)(=O)c1ccc(-c2cccc3sc(N)nc23)c(-c2nn[nH]n2)c1S(N)(=O)=O [Example 145, 4-(2-aminobenzo[d]thiazol-4-yl)-N1-(2-aminoethyl)-3-(2H-tetrazol-5-yl)benzene-1,2-disulfonamide] | 0.50
15 | Nc1nc2c(-c3ccc(S(=O)(=O)NC4CNC4)c(S(N)(=O)=O)c3-c3nn[nH]n3)cccc2s1 [Example 146, 4-(2-aminobenzo[d]thiazol-4-yl)-N1-(azetidin-3-yl)-3-(2H-tetrazol-5-yl)benzene-1,2-disulfonamide] | 0.50
16 | Nc1nc2c(-c3ccc(S(=O)(=O)N4CC(N)C4)c(S(N)(=O)=O)c3-c3nn[nH]n3)cccc2s1 [Example 147, 6-((3-aminoazetidin-1-yl)sulfonyl)-3-(2-aminobenzo[d]thiazol-4-yl)-2-(2H-tetrazol-5-yl)benzenesulfonamide] | 1.00

Row | SMILES | Efflux ratio
17 | Nc1nc2c(-c3ccc(S(=O)(=O)N4CCC(N)CC4)c(S(N)(=O)=O)c3-c3nn[nH]n3)cccc2s1 [Example 148, 3-(2-aminobenzo[d]thiazol-4-yl)-6-((4-aminopiperidin-1-yl)sulfonyl)-2-(2H-tetrazol-5-yl)benzenesulfonamide] | 2.00
18 | Nc1nc2c(-c3ccc(S(=O)(=O)NCC4(N)CC4)c(S(N)(=O)=O)c3-c3nn[nH]n3)cccc2s1 [Example 149, 4-(2-aminobenzo[d]thiazol-4-yl)-N1-((1-aminocyclopropyl)methyl)-3-(2H-tetrazol-5-yl)benzene-1,2-disulfonamide] | 1.00
19 | CN(C)S(=O)(=O)c1ccc(-c2cccc3sc(N)nc23)c(-c2nn[nH]n2)c1S(N)(=O)=O [Example 151, 4-(2-aminobenzo[d]thiazol-4-yl)-N1,N1-dimethyl-3-(2H-tetrazol-5-yl)benzene-1,2-disulfonamide] | 16.00
20 | CNS(=O)(=O)c1ccc(-c2cccc3sc(N)nc23)c(-c2nn[nH]n2)c1S(N)(=O)=O [Example 152, 4-(2-aminobenzo[d]thiazol-4-yl)-N1-methyl-3-(2H-tetrazol-5-yl)benzene-1,2-disulfonamide] | 8.00
21 | Nc1nc2c(-c3ccc(S(=O)(=O)NCC(=O)O)c(S(N)(=O)=O)c3-c3nn[nH]n3)cccc2s1 [Example 153, ((4-(2-aminobenzo[d]thiazol-4-yl)-2-sulfamoyl-3-(2H-tetrazol-5-yl)phenyl)sulfonyl)glycine] | 1.00
22 | Nc1nc2c(-c3ccc(S(=O)(=O)NC[C@@H](N)C(=O)O)c(S(N)(=O)=O)c3-c3nn[nH]n3)cccc2s1 [Example 154, (R)-2-amino-3-((4-(2-aminobenzo[d]thiazol-4-yl)-2-sulfamoyl-3-(2H-tetrazol-5-yl)phenyl)sulfonamido) propanoic acid] | 0.50
23 | CS(=O)(=O)Nc1nc2c(-c3ccc(S(=O)(=O)N4CCNCC4)c(S(N)(=O)=O)c3-c3nn[nH]n3)cccc2s1 [Example 156, 3-(2-(Methylsulfonamido)benzo[d]thiazol-4-yl)-6-(piperazin-1-ylsulfonyl)-2-(2H-tetrazol-5-yl)benzenesulfonamide] | 2.00
24 | Nc1nc2cccc(-c3ccc(S(=O)(=O)N4CCNCC4)c(S(N)(=O)=O)c3-c3nn[nH]n3)c2[nH]1 [Example 157, 3-(2-amino-3H-benzo[d]imidazol-4-yl)-6-(piperazin-1-ylsulfonyl)-2-(2H-tetrazol-5-yl)benzenesulfonamide] | 4.00
25 | Nc1nc2c(-c3ccc(S(=O)(=O)N4CCNCC4)c(S(N)(=O)=O)c3-c3nn[nH]n3)cccc2o1 [Example 159, 3-(2-aminobenzo[d]oxazol-4-yl)-6-(piperazin-1-ylsulfonyl)-2-(2H-tetrazol-5-yl)benzenesulfonamide] | 2.00
26 | NS(=O)(=O)c1c(S(=O)(=O)N2CCNCC2)ccc(-c2cccc3cn[nH]c23)c1-c1nnn[nH]1 [Example 160, 3-(1H-indazol-7-yl)-6-(piperazin-1-ylsulfonyl)-2-(1H-tetrazol-5-yl)benzenesulfonamide] | 4.00
27 | Nc1nc2c(-c3ccc(S(=O)(=O)N[C@@H]4CCNC4)c(S(N)(=O)=O)c3-c3nn[nH]n3)cccc2[nH]1 [Example 161, 4-(2-amino-1H-benzo[d]imidazol-4-yl)-N^1—((R)-pyrrolidin-3-yl)-3-(2H-tetrazol-5-yl)benzene-1,2-disulfonamide] | 0.78
28 | Nc1nc2c(-c3ccc(S(=O)(=O)N[C@H]4CCNC4)c(S(N)(=O)=O)c3-c3nn[nH]n3)cccc2[nH]1 [Example 162, 4-(2-amino-1H-benzo[d]imidazol-4-yl)-N^1-((S)-pyrrolidin-3-yl)-3-(2H-tetrazol-5-yl)benzene-1,2-disulfonamide] | 0.87
29 | Cn1c(N)nc2c(-c3ccc(S(=O)(=O)N[C@H]4CCNC4)c(S(N)(=O)=O)c3-c3nn[nH]n3)cccc21 [Example 163, 4-(2-amino-1-methyl-1H-benzo[d]imidazol-4-yl)-N^1-((S)-pyrrolidin-3-yl)-3-(2H-tetrazol-5-yl)benzene-1,2-disulfonamide] | 1.00
30 | Cn1c(N)nc2c(-c3ccc(S(=O)(=O)N[C@@H]4CCNC4)c(S(N)(=O)=O)c3-c3nn[nH]n3)cccc21 [Example 164, 4-(2-amino-1-methyl-1H-benzo[d]imidazol-4-yl)-N^1-((R)-pyrrolidin-3-yl)-3-(2H-tetrazol-5-yl)benzene-1,2-disulfonamide] | 1.00
31 | NC1CCC(c2ccc(S(N)(=O)=O)c(S(N)(=O)=O)c2-c2nnn[nH]2)CC1 (centres unmarked) [Example 165, 4-(4-aminocyclohexyl)-3-(1H-tetrazol-5-yl)benzene-1,2-disulfonamide] | 4.00
32 | C[N+]1(C)CC[C@H](NS(=O)(=O)c2ccc(-c3cccc4[nH]c(N)nc34)c(-c3nn[n-]n3)c2S(N)(=O)=O)C1 [Example 166, (S)-5-(6-(2-amino-1H-benzo[d]imidazol-4-yl)-3-(N-(1,1-dimethylpyrrolidin-1-ium-3-yl)sulfamoyl)-2-sulfamoylphenyl)tetrazol-2-ide] | 1.00
